According to patent US7723068B2, “Gene cluster involved in safracin biosynthesis and its uses for genetic engineering” (PharmaMar, S.A., priority 2002, dated 2010):

How the values were obtained:
PANC1 [1] = conditions: Pancreas
A549 [2] = conditions: NSCL
A549 [3] = experiment: cells; conditions: Homo sapiens; for GI50: A549, read-out: GI50 A549; for CC50: A549, read-out: LC50 A549
K-562 [4] = experiment: cells; conditions: Homo sapiens; for GI50: K562, read-out: GI50 K-562; for CC50: K562, read-out: LC50 K-562
IGROV [5] = conditions: Ovary
[6] = Antibacterial and antitumoral activities, general statements; conditions: compared with safracin A / safracin B
HELA [7] = experiment: cells; conditions: Homo sapiens; for GI50: read-out: GI50 HELA; for CC50: read-out: LC50 HELA
HT29 [8] = experiment: cells; conditions: Homo sapiens; for GI50: HT-29, read-out: GI50 HT29; for CC50: HT-29, read-out: LC50 HT29
LOVO-DOX [9] = experiment: cells; conditions: for GI50: read-out: GI50 LOVO-DOX; for CC50: read-out: LC50 LOVO-DOX
HELA-APL [10] = experiment: cells; conditions: for GI50: read-out: GI50 HELA-APL; for CC50: read-out: LC50 HELA-APL
LN-caP [11] = conditions: Prostate
SK-MEL-28 [12] = experiment: cells; conditions: Homo sapiens; for GI50: SK-MEL-28, read-out: GI50 SK-MEL-28; for CC50: SK-MEL-28, read-out: LC50 SK-MEL-28
DU-145 [13] = experiment: cells; conditions: Homo sapiens; for GI50: DU-145, read-out: GI50 DU-145; for CC50: DU-145, read-out: LC50 DU-145
K-562 [14] = conditions: Leukemia
IGROV [15] = experiment: cells; conditions: for GI50: read-out: GI50 IGROV; for CC50: read-out: LC50 IGROV
IGROV-ET [16] = conditions: Ovary
SK-BR3 [17] = experiment: cells; conditions: Homo sapiens; for GI50: SK-BR-3, read-out: GI50 SK-BR3; for CC50: SK-BR-3, read-out: LC50 SK-BR3
HT29 [18] = conditions: Colon
PANC1 [19] = experiment: cells; conditions: Homo sapiens; for GI50: PANC-1, read-out: GI50 PANC1; for CC50: PANC-1, read-out: LC50 PANC1
LOVO-DOX [20] = conditions: Colon
DNA synthesis = experiment: Secondary Screening, Macromolecules Synthesis DNA; type: cell-based; conditions: Secondary Evaluation
DU-145 [21] = conditions: Prostate
HELA-APL [22] = conditions: Cervix
LN-caP [23] = experiment: cells; conditions: Homo sapiens, LNCaP; for GI50: read-out: GI50 LN-caP; for CC50: read-out: LC50 LN-caP
PROTEIN synthesis = experiment: Secondary Screening, Macromolecules Synthesis PROTEIN; type: cell-based; conditions: Secondary Evaluation
SK-MEL-28 [24] = conditions: Melanoma
LOVO [25] = experiment: cells; conditions: Homo sapiens; for GI50: read-out: GI50 LOVO; for CC50: read-out: LC50 LOVO
IGROV-ET [26] = experiment: cells; conditions: for GI50: read-out: GI50 IGROV-ET; for CC50: read-out: LC50 IGROV-ET
Bacillus subtilis = experiment: Antimicrobial activity on solid medium, disk; type: cell-based; conditions: 10 μg/disk (6 mm diameter)
Method: Antimicrobial activity: On solid medium Bacillus subtilis. 10 μg/disk (6 mm diameter): 10 mm inhibition zone Spectroscopic Data: […]

HELA [27] = conditions: Cervix
SK-BR3 [28] = conditions: Breast
LOVO [29] = conditions: Colon

SMILES: COC1=C(C)C(=O)C2=C(C1=O)C(CNC(=O)C(C)N)N1CC3Cc4cc(C)c(OC)c(O)c4C(N3)C1C2 (stereo not drawn) [Safracin E]
- TGI PANC1 (PANC1 [1]): 14.7 µM
- TGI A549 (A549 [2]): >19.6 µM
- GI50 (A549 [3]): 19.6 µM
- CC50 (A549 [3]): > 19.6 µM
- GI50 (K-562 [4]): 4.25 µM
- CC50 (K-562 [4]): 15.9 µM
- TGI IGROV (IGROV [5]): 8.85 µM
- antibacterial and antitumoral activities (in words) [6]: the same antibacterial and antitumoral activities as safracin B and safracin A, respectively
- GI50 (HELA [7]): 4.15 µM
- CC50 (HELA [7]): 12.8 µM
- GI50 (HT29 [8]): 7.89 µM
- CC50 (HT29 [8]): > 19.6 µM
- GI50 (LOVO-DOX [9]): 5.07 µM
- CC50 (LOVO-DOX [9]): 17.5 µM
- GI50 (HELA-APL [10]): 4.03 µM
- CC50 (HELA-APL [10]): 13 µM
- TGI LN-caP (LN-caP [11]): 7.7 µM
- GI50 (SK-MEL-28 [12]): 3.94 µM
- CC50 (SK-MEL-28 [12]): 12.2 µM
- GI50 (DU-145 [13]): 8.34 µM
- CC50 (DU-145 [13]): > 19.6 µM
- TGI K-562 (K-562 [14]): 8.21 µM
- GI50 (IGROV [15]): 4.5 µM
- CC50 (IGROV [15]): 17.4 µM
- TGI IGROV-ET (IGROV-ET [16]): 8.25 µM
- GI50 (SK-BR3 [17]): 5.05 µM
- CC50 (SK-BR3 [17]): 17 µM
- TGI HT29 (HT29 [18]): 19.6 µM
- GI50 (PANC1 [19]): 6.05 µM
- CC50 (PANC1 [19]): > 19.6 µM
- TGI LOVO-DOX (LOVO-DOX [20]): 9.44 µM
- IC50 (DNA synthesis): > 19.6 µM
- TGI DU-145 (DU-145 [21]): 19.6 µM
- TGI HELA-APL (HELA-APL [22]): 7.25 µM
- GI50 (LN-caP [23]): 3.86 µM
- CC50 (LN-caP [23]): 15.4 µM
- IC50 (PROTEIN synthesis): 15.7 µM
- TGI SK-MEL-28 (SK-MEL-28 [24]): 6.93 µM
- GI50 (LOVO [25]): 7.15 µM
- CC50 (LOVO [25]): > 19.6 µM
- GI50 (IGROV-ET [26]): 4.54 µM
- CC50 (IGROV-ET [26]): 14.9 µM
- zone of inhibition at 10 µg/disc (Bacillus subtilis; Bacillus subtilis): 9.5 mm
- TGI HELA (HELA [27]): 7.29 µM
- TGI SK-BR3 (SK-BR3 [28]): 9.24 µM
- TGI LOVO (LOVO [29]): >19.6 µM

SMILES: COc1c(C)cc2c(c1O)C1NC(C2)C(O)N2C(CNC(=O)C(C)N)c3c(cc(C)c(OC)c3O)CC12 (stereo not drawn) [Safracin P-19B]
- TGI PANC1 (PANC1 [1]): >19.5 µM
- TGI A549 (A549 [2]): >19.5 µM
- GI50 (A549 [3]): > 19.5 µM
- CC50 (A549 [3]): > 19.5 µM
- GI50 (K-562 [4]): 2.38 µM
- CC50 (K-562 [4]): 14 µM
- TGI IGROV (IGROV [5]): 14.8 µM
- antibacterial and antitumoral activities (in words) [6]: appear to loose their activity
- GI50 (HELA [7]): 6.73 µM
- CC50 (HELA [7]): > 19.5 µM
- GI50 (HT29 [8]): 15.5 µM
- CC50 (HT29 [8]): > 19.5 µM
- GI50 (LOVO-DOX [9]): 14.4 µM
- CC50 (LOVO-DOX [9]): > 19.5 µM
- GI50 (HELA-APL [10]): 4.8 µM
- CC50 (HELA-APL [10]): 19.5 µM
- TGI LN-caP (LN-caP [11]): 8.06 µM
- GI50 (SK-MEL-28 [12]): 7.9 µM
- CC50 (SK-MEL-28 [12]): > 19.5 µM
- GI50 (DU-145 [13]): 17 µM
- CC50 (DU-145 [13]): > 19.5 µM
- TGI K-562 (K-562 [14]): 5.77 µM
- GI50 (IGROV [15]): 5.42 µM
- CC50 (IGROV [15]): > 19.5 µM
- TGI IGROV-ET (IGROV-ET [16]): >19.5 µM
- GI50 (SK-BR3 [17]): 7.08 µM
- CC50 (SK-BR3 [17]): > 19.5 µM
- TGI HT29 (HT29 [18]): >19.5 µM
- GI50 (PANC1 [19]): 18.1 µM
- CC50 (PANC1 [19]): > 19.5 µM
- TGI LOVO-DOX (LOVO-DOX [20]): >19.5 µM
- TGI DU-145 (DU-145 [21]): >19.5 µM
- TGI HELA-APL (HELA-APL [22]): 10 µM
- GI50 (LN-caP [23]): 3.9 µM
- CC50 (LN-caP [23]): 16.7 µM
- TGI SK-MEL-28 (SK-MEL-28 [24]): >19.5 µM
- GI50 (LOVO [25]): > 19.5 µM
- CC50 (LOVO [25]): > 19.5 µM
- GI50 (IGROV-ET [26]): 8.74 µM
- CC50 (IGROV-ET [26]): > 19.5 µM
- Antimicrobial activity: inhibition zone (Bacillus subtilis): NO ACTIVE
- TGI HELA (HELA [27]): 16.1 µM
- TGI SK-BR3 (SK-BR3 [28]): 19.2 µM
- TGI LOVO (LOVO [29]): >19.5 µM
